This note sets out measurements from patent publication US5719143A, “Polysubstituted 3-acylamino-5-phenyl-1, 4-benzodiazepin-2-one derivatives, process for their preparation and the pharmaceutical compositions containing them” (Sanofi, priority 1994, dated 1998).

One experiment has as its system biliary emptying. Kind of experiment: in vivo biliary emptying model in fasted mice. The note with it: Mus musculus, po, 1 h, administered orally one hour before the sacrifice, bile vesicle weight. The protocol: The compounds are administered orally one hour before the sacrifice. The bile vesicle is removed and then weighed and the results, expressed in mg/kg of body weight, reveal for the compound of Example 10, for example, an ED50 of 0.3 mg/kg.

A further experiment has as its system CCKA receptors. The experiment is described as follows: in vitro affinity measurement, CCKA receptors. The format is binding. The protocol:
These compounds have formed the subject of in vitro affinity measurement studies concerning the CCKA receptors.
(§1) This affinity is between 0.5 and 100 nM with a selectivity for the CCKA receptors over the CCKB receptors which may reach a factor of 10,000 for the compound of Example 1, for example.

The next experiment deals with CCKB receptor. The experiment is described as follows: in vitro affinity measurement, CCKB receptor. The format is binding. The protocol:
as §1

Each structure is given as a SMILES string.

One may read the ED50 as the dose at which the effect has come halfway, by size or by number of responders. High values mean weaker potency, low ones greater potency. In the experiment on biliary emptying, `COc1cc(C)cc(OC)c1C1=NC(NC(=O)c2cc3ccccc3[nH]2)C(=O)N(C)c2ccccc21` (single isomer, unassigned; (+)) [Example 10, (+)-N-[2,3-dihydro-5-(2,6-dimethoxy-4-methylphenyl)-1-methyl-2-oxo-1H-1,4-benzodiazepin-3-yl]-1H-indole-2-carboxamide] displayed an ED50 of 0.3 mg/kg.

As for `COc1cc(C)cc(OC)c1C1=NC(NC(=O)c2cc3ccccc3[nH]2)C(=O)N(C)c2ccccc21` (stereo not shown) [Example 1, N-[2,3-dihydro-5-(2,6-dimethoxy-4-methylphenyl)-1-methyl-2-oxo-1H-1,4-benzodiazepin-3-yl]-1H-2-indolecarboxamide], in the experiment on CCKA receptors, the “selectivity for the CCKA receptors over the CCKB receptors (factor)” value is listed as 10,000. Take `COc1cc(C)cc(OC)c1C1=NC(NC(=O)Nc2cccc(C)c2)C(=O)N(C)c2ccccc21` (stereo not shown) [Example 6, 1,3-dihydro-5-(2,6-dimethoxy-4-methylphenyl)-1-methyl-3-(3-methylphenylureido)-1,4-benzodiazepin-2-one]: the “affinity for the CCKB receptor compared with that for the CCKA receptor” value in the experiment on CCKB receptor is recorded as “identical to or greater than that obtained for the CCKA receptor”. The same measure, in the same setting: for `COc1cc(OC)c(C2=NC(NC(=O)Nc3cccc(C)c3)C(=O)N(C)c3ccccc32)c(OC)c1` (stereo not shown) [Example 7, 1,3-dihydro-1-methyl-3-(3-methylphenylureido)-5-(2,4,6-trimethoxyphenyl)-1,4-benzodiazepin-2-one] the value was “identical to or greater than that obtained for the CCKA receptor”.
